Like-named read-outs stand apart in the source and are kept apart here. Marks after values point to notes of the source that are not given here.
Tests used:
Hep 3B cells [1] = assay: MTT cell viability assay, Hep 3B cells (serum-free DMEM)
Description: (§1) Human hepatoma cell lines Hep G2 and Hep 3 were chosen as the in vitro models of hepatocytes and hepatoma, respectively.

Hep 3B cells [2] = assay: Cell cycle determination by flow cytometry, Hep 3B; format: cell-based, human; details: cell line not given
Hep 3B/T2 cells = assay: Tumor growth of Hep 3B/T2 cells in nude mice; format: in vivo, BALB/c-nu/nu nude mice; details: for Tumor size: LOV 75 mg/kg/day p.o. days 8-14 and/or taxol 120 μg/kg/day i.p. days 15-19, n = 3
[3] = MTT cell viability assay, Hep G2 cells (serum-free DMEM); details: human, Hep G2 cells, Cell viability
Description: as §1

Hep G2 cells = assay: as above; details: Homo sapiens
Description: as §1

CC(=O)O[C@H]1C(=O)[C@@]2(C)[C@H]([C@H](OC(=O)c3ccccc3)[C@]3(O)C[C@H](OC(=O)[C@H](O)[C@@H](NC(=O)c4ccccc4)c4ccccc4)C(C)=C1C3(C)C)[C@]1(OC(C)=O)CO[C@@H]1C[C@@H]2O [Taxol, paclitaxel]
Ratio, inhibition (%) Hep 3B/inhibition (%) Hep G2 (Hep 3B cells [1]; taxol 20 nM, 72 hr): 0.2***
Ratio, inhibition (%) Hep 3B/inhibition (%) Hep G2 (Hep 3B cells [1]; taxol 50 nM, 48 hr): 0.3***
Ratio, inhibition (%) Hep 3B/inhibition (%) Hep G2 (Hep 3B cells [1]; taxol 50 nM, 72 hr): 0.4***
Ratio, inhibition (%) Hep 3B/inhibition (%) Hep G2 (Hep 3B cells [1]; taxol 100 nM, 48 hr): 0.4**
Ratio, inhibition (%) Hep 3B/inhibition (%) Hep G2 (Hep 3B cells [1]; taxol 100 nM, 72 hr): 0.6**
Ratio, inhibition (%) Hep 3B/inhibition (%) Hep G2 (Hep 3B cells [1]; taxol 200 nM, 48 hr): 0.5**
Ratio, inhibition (%) Hep 3B/inhibition (%) Hep G2 (Hep 3B cells [1]; taxol 200 nM, 72 hr): 0.6**
Ratio, inhibition (%) Hep 3B/inhibition (%) Hep G2 (Hep 3B cells [1]; taxol 500 nM, 48 hr): 0.6**
Ratio, inhibition (%) Hep 3B/inhibition (%) Hep G2 (Hep 3B cells [1]; taxol 500 nM, 72 hr): 0.8**
Ratio, inhibition (%) Hep 3B/inhibition (%) Hep G2 (Hep 3B cells [1]; taxol 1000 nM, 48 hr): 0.5**
Ratio, inhibition (%) Hep 3B/inhibition (%) Hep G2 (Hep 3B cells [1]; taxol 1000 nM, 72 hr): 0.8**
cell cycle arrest stage (Hep 3B cells [2]): G2/M arrest
percentage of inhibition of tumor size (Hep 3B/T2 cells; Cycle 1 (Day 42), LOV 37.5 mg/kg/day p.o. days 28-34 and 49-55 and/or taxol 120 μg/kg/2 day i.p. day 36, 38, 40, 57, 59, 61): (−54.2%
Tumor size (Hep 3B/T2 cells; Day 8): 0.111 cm^3
Tumor size (Hep 3B/T2 cells; Day 11): 0.125 cm^3
Tumor size (Hep 3B/T2 cells; Day 17): 0.063 cm^3
Tumor size (Hep 3B/T2 cells; Day 26): 0.064 cm^3
Tumor size (Hep 3B/T2 cells; Day 29): 0.137 cm^3
Tumor size (1 × w^2 × 0.52 cm^3) Day 35 (Hep 3B/T2 cells; Day 35 after inoculation, p.o. lovastatin 37.5 mg/kg/day (days 28-34, 49-55) and/or i.p. taxol 120 μg/kg/2 day (days 36, 38, 40, 57, 59, 61), mean ± SEM): 0.400 cm^3
Tumor size (1 × w^2 × 0.52 cm^3) Day 38 (Hep 3B/T2 cells; Day 38 after inoculation, p.o. lovastatin 37.5 mg/kg/day (days 28-34, 49-55) and/or i.p. taxol 120 μg/kg/2 day (days 36, 38, 40, 57, 59, 61), mean ± SEM): 0.415 cm^3
Tumor size (1 × w^2 × 0.52 cm^3) Day 42 (Hep 3B/T2 cells; Day 42 after inoculation, p.o. lovastatin 37.5 mg/kg/day (days 28-34, 49-55) and/or i.p. taxol 120 μg/kg/2 day (days 36, 38, 40, 57, 59, 61), mean ± SEM): 0.465 cm^3
Tumor size (1 × w^2 × 0.52 cm^3) Day 49 (Hep 3B/T2 cells; Day 49 after inoculation, p.o. lovastatin 37.5 mg/kg/day (days 28-34, 49-55) and/or i.p. taxol 120 μg/kg/2 day (days 36, 38, 40, 57, 59, 61), mean ± SEM): 0.811 cm^3
Tumor size (1 × w^2 × 0.52 cm^3) Day 56 (Hep 3B/T2 cells; Day 56 after inoculation, p.o. lovastatin 37.5 mg/kg/day (days 28-34, 49-55) and/or i.p. taxol 120 μg/kg/2 day (days 36, 38, 40, 57, 59, 61), mean ± SEM): 0.996 cm^3
Tumor size (1 × w^2 × 0.52 cm^3) Day 63 (Hep 3B/T2 cells; Day 63 after inoculation, p.o. lovastatin 37.5 mg/kg/day (days 28-34, 49-55) and/or i.p. taxol 120 μg/kg/2 day (days 36, 38, 40, 57, 59, 61), mean ± SEM): 1.424 cm^3
viability at 48 h, 2 nM ([3]; no lovastatin 48 hr, then taxol 2 nM 48 hr): 92.2 ± 1.5%
viability at 48 h, 5 nM ([3]; no lovastatin 48 hr, then taxol 5 nM 48 hr): 61.5 ± 2.2%
viability at 48 h, 10 nM ([3]; no lovastatin 48 hr, then taxol 10 nM 48 hr): 57.9 ± 3.3%
viability at 48 h, 2 nM ([3]; no lovastatin 72 hr, then taxol 2 nM 48 hr): 85.1 ± 1.9%
viability at 72 hr, 2 nM ([3]; no lovastatin 72 hr, then taxol 2 nM 72 hr): 77.7 ± 2.6%
viability at 48 h, 5 nM ([3]; no lovastatin 72 hr, then taxol 5 nM 48 hr): 64.2 ± 1.2%
viability at 72 h, 5 nM ([3]; no lovastatin 72 hr, then taxol 5 nM 72 hr): 65.8 ± 1.3%
viability at 48 h, 10 nM ([3]; no lovastatin 72 hr, then taxol 10 nM 48 hr): 60.5 ± 3.2%
viability at 72 h, 10 nM ([3]; no lovastatin 72 hr, then taxol 10 nM 72 hr): 63.6 ± 8.4%
viability at 96 h, 2 nM ([3]; taxol 2 nM alone, Table 10): 72.4 ± 6.9%
viability at 48 h, 2 nM ([3]; taxol 2 nM, 48 hr): 94.5 ± 5.4%
viability at 48 h, 2 nM ([3]; taxol 2 nM, 48 hr, Table 9): 88 ± 1.9%
viability at 72 h, 2 nM ([3]; taxol 2 nM, 72 hr): 89.2 ± 2.6%
viability at 72 h, 2 nM ([3]; taxol 2 nM, 72 hr, Table 9): 89.2 ± 2.6%
viability at 96 h, 2 nM ([3]; taxol 2 nM): 66.6 ± 3.5%
viability at 120 h, 2 nM ([3]; taxol 2 nM, 120 hr): 65.1 ± 0.9%
viability at 96 h, 5 nM ([3]; taxol 5 nM alone, Table 10): 49.3 ± 9.9%
viability at 48 h, 5 nM ([3]; taxol 5 nM, 48 hr): 72.9 ± 4%
viability at 48 h, 5 nM ([3]; taxol 5 nM, 48 hr, Table 9): 74.7 ± 2.3%
viability at 72 h, 5 nM ([3]; taxol 5 nM, 72 hr): 63.7 ± 2.3%
viability at 72 h, 5 nM ([3]; taxol 5 nM, 72 hr, Table 9): 63.7 ± 2.3%
viability at 96 h, 5 nM ([3]; taxol 5 nM): 36.2 ± 5.5%
viability at 120 h, 5 nM ([3]; taxol 5 nM, 120 hr): 33.8 ± 0.6%
viability at 96 h, 10 nM ([3]; taxol 10 nM alone, Table 10): 24.8 ± 2.5%
viability at 48 h, 10 nM ([3]; taxol 10 nM, 48 hr): 64.2 ± 3.8%
viability at 48 h, 10 nM ([3]; taxol 10 nM, 48 hr, Table 9): 58.1 ± 8.1%
viability at 72 h, 10 nM ([3]; taxol 10 nM, 72 hr): 39 ± 0.5%
viability at 72 h, 10 nM ([3]; taxol 10 nM, 72 hr, Table 9): 39 ± 0.5%
viability at 96 h, 10 nM ([3]; taxol 10 nM): 22.7 ± 4.1%
viability at 120 h, 10 nM ([3]; taxol 10 nM, 120 hr): 19 ± 3.4%
viability at 48 h, 20 nM ([3]; taxol 20 nM, 48 hr): 53.5 ± 1.1%
viability at 72 h, 20 nM ([3]; taxol 20 nM, 72 hr): 35.4 ± 3.6%
viability at 48 h, 50 nM ([3]; taxol 50 nM, 48 hr): 47 ± 2.3%
viability at 72 h, 50 nM ([3]; taxol 50 nM, 72 hr): 33.9 ± 3.7%
viability at 48 h, 100 nM ([3]; taxol 100 nM, 48 hr): 34.6 ± 9.1%
viability at 72 h, 100 nM ([3]; taxol 100 nM, 72 hr): 19.5 ± 4.6%
viability at 48 h, 200 nM ([3]; taxol 200 nM, 48 hr): 35.4 ± 5.5%
viability at 72 h, 200 nM ([3]; taxol 200 nM, 72 hr): 15.6 ± 5.8%
viability at 48 h, 500 nM ([3]; taxol 500 nM, 48 hr): 29.1 ± 4.2%
viability at 72 h, 500 nM ([3]; taxol 500 nM, 72 hr): 11 ± 5%
viability at 48 h, 1000 nM ([3]; taxol 1000 nM, 48 hr): 15 ± 3.9%
viability at 72 h, 1000 nM ([3]; taxol 1000 nM, 72 hr): 9.9 ± 4.9%
IC50 (Hep G2 cells; HepG2, 48 h, read-out: IC50 (cell viability), 48 hr, Table 8): 40.8 ± 7 nM
IC50 (Hep G2 cells; HepG2, 48 h, read-out: IC50 (cell viability), 48 hr, Table 9): 12.4 nM
IC50 (Hep G2 cells; HepG2, 72 h, read-out: IC50 (cell viability), 72 hr, Table 8): 7.8 ± 1 nM
IC50 (Hep G2 cells; HepG2, 72 h, read-out: IC50 (cell viability), 72 hr, Table 9): 7.8 nM
IC50 (Hep G2 cells; HepG2, 96 h, read-out: IC50 (cell viability), 96 hr): 3.6 nM
IC50 (Hep G2 cells; HepG2, 120 h, read-out: IC50 (cell viability), 120 hr): 3.5 nM

— US20020173538A1, “Method for sensitizing cancer cells to cancer therapies with a mevalonate-reducing compound” (priority 2000, published 2002)
